# Measurements as given in PMC9229919, “4-Aminoquinoline-Based Adamantanes as Potential Anticholinesterase Agents in Symptomatic Treatment of Alzheimer’s Disease” (Pharmaceutics, 2022).
# Read-outs that look alike come from different tables or passages of the source.
# What was measured:
# [1] = target: T1, recombinant human AChE (Homo sapiens, UniProt P22303); experiment: biochemical; format: biochemical; details: for IS: IS = Ki(BChE)/Ki(AChE), IS > 1 selective to AChE
# T1 construct: gift of Dr Florian Nachon (Armed Forces Biomedical Research Institute, Brétigny-sur-Orge, France)
# T1 sequence (P22303 32-614): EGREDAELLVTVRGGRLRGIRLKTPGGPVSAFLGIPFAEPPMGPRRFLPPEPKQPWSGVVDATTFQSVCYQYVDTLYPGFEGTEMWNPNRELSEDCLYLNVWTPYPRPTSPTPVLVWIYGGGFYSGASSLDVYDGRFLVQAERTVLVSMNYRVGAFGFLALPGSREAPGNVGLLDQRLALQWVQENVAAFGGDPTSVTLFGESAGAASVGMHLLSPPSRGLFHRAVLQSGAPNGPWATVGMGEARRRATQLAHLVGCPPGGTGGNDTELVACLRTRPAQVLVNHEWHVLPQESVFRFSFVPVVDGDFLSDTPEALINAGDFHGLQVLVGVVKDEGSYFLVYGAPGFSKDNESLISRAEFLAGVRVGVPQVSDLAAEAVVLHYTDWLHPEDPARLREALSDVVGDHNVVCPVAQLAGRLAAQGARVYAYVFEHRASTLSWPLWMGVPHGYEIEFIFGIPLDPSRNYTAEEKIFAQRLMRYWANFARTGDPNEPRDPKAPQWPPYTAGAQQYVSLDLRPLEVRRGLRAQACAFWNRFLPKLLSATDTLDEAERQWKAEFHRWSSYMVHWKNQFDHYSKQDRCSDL
# Experimental: (§1) Acetylthiocholine (ATCh) and 5,5′-dithiobis(2-nitrobenzoic acid) (DTNB) were purchased from Sigma-Aldrich, St. Louis, MO, USA. ATCh was dissolved in water and DTNB in 0.1 M sodium phosphate buffer (pH 7.4). The 4-aminoquinilines were dissolved in DMSO and all further dilutions were made in water.
# (§2) The sources of AChE and BChE were purified human BChE and recombinant human AChE that was kindly provided by Dr Florian Nachon (Département de Toxicologie, Armed Forces Biomedical Research Institute, Brétigny-sur-Orge, France). […] The enzymes were diluted in sodium phosphate buffer 0.1 M (pH 7.4) containing 0.1% BSA.
# (§3) Enzyme activities were measured spectrophotometrically using a slightly modified Ellman method, as described earlier. […] At least three inhibitor concentrations for each substrate concentration were used in at least three experiments. The apparent inhibition constant (Ki,app) was calculated using the Hunter–Downs Equation and linear regression analysis:(1) Ki,app=vi·i/v0−vi=Ki+Ki/KS·s where the y-intercept determines the enzyme-inhibitor dissociation constant (Ki), while the x-intercept determines the enzyme-substrate dissociation constant, KS.
# (§4) The Hunter–Downs Equation was used under the assumption that the substrate, due to relatively low concentrations used in experiments, would bind only to the catalytic site of the enzymes, while the inhibitors would bind to both CAS and/or PAs. This allowed the type of inhibition to be determined from Ki,app vs. substrate concentration ([S]) dependency on Hunter–Downs plot.
# (§5) The final content of DMSO in the measurements was up to 0.2%. […] The measurements were performed at 25 °C on a Tecan Infinite M200Pro plate reader (Tecan Austria GmbH, Salzburg, Austria).
# [2] = target: T2, purified human BChE (Homo sapiens, UniProt P06276); experiment: biochemical; format: biochemical
# T2 construct: possibly also a gift of Dr Florian Nachon (the sentence is ambiguous)
# T2 sequence (P06276 29-602): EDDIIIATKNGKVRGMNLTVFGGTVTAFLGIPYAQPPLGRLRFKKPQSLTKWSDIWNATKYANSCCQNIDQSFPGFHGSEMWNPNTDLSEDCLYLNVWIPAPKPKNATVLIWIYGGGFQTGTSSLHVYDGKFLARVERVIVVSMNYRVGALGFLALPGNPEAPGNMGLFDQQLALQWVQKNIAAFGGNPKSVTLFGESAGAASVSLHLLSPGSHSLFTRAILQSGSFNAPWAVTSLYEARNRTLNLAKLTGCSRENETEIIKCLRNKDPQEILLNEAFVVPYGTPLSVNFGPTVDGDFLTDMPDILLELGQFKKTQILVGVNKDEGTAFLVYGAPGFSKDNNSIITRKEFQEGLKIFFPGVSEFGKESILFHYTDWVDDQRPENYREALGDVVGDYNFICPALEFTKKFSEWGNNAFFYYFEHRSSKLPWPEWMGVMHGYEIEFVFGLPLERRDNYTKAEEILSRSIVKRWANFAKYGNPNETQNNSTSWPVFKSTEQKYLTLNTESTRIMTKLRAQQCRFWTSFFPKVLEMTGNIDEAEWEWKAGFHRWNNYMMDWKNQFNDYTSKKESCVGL
# Experimental: as §1, §2, §3, §4, §5
# [3] = Ferric reducing antioxidant power (FRAP) assay; details: mean ± standard error of three experiments;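 further: expressed as µM Fe2+ equivalents from an FeSO4·7H2O standard curve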
# Experimental: . All the chemicals were purchased from Sigma-Aldrich (St. Louis, MO, USA), except for tripyridyltriazine (TPTZ) (Fluka, Buchs, Switzerland) and FeCl3 (Kemika, Zagreb, Croatia). The FRAP assay was assessed according to Benzie and Strain [53] with slight procedure adjustments for 96-well microplates. The method is based on the reduction of the ferric-tripyridyltriazine (Fe^3+-TPTZ) complex to ferrous tripyridyltriazine (Fe^2+-TPTZ) by the action of electron-donating compounds at a low pH. Briefly, the FRAP reagent was prepared by mixing acetate buffer (300 mM, pH 3.6), a solution of 10 mM TPTZ in 40 mM HCl, and 20 mM FeCl3 at 10:1:1 (v/v/v). Then, 240 μL of FRAP reagent and 10 μL of sample solution were added to a 96-well plate and incubated at 37 °C for 60 min. The absorbance was measured at 593 nm using a microplate reader (Infinite M200PRO, Tecan Austria GmbH, Salzburg, Austria) against a blank. The reducing capacity was determined for 10 and 100 µM compound concentrations. […]. All measurements were performed in three independent experiments. FRAP values, denominating the reduction of ferric-tripyridyltriazine (Fe^3+-TPTZ) to ferrous tripyridyltriazine (Fe^2+-TPTZ) by 4-aminoquinolines were calculated based on a standard curve obtained using […].
# [4] = Reverse-phase thin-layer chromatographic lipophilicity (RF, RM0); format: physicochemical; details: for RM0: intercept of RM = RM0 + bC; for b: slope of RM = RM0 + bC; for RF, Acetone/Water/Hydrochloric acid (conc.), mobile phase I / RF, Dioxane/Water/Hydrochloric acid (conc.), mobile phase I / RF, Methanol/Water/Hydrochloric acid (conc.), mobile phase I / RF, Acetone/Water/Hydrochloric acid (conc.), mobile phase II / RF, Dioxane/Water/Hydrochloric acid (conc.), mobile phase II / RF, Methanol/Water/Hydrochloric acid (conc.), mobile phase II / RF, Acetone/Water/Hydrochloric acid (conc.), mobile phase III / RF, Dioxane/Water/Hydrochloric acid (conc.), mobile phase III / RF, Methanol/Water/Hydrochloric acid (conc.), mobile phase III / RF, Dioxane/Water/Hydrochloric acid (conc.), mobile phase IV / RF, Acetone/Water/Hydrochloric acid (conc.), mobile phase IV / RF, Methanol/Water/Hydrochloric acid (conc.), mobile phase IV / RF, Acetone/Water/Hydrochloric acid (conc.), mobile phase IX / RF, Methanol/Water/Hydrochloric acid (conc.), mobile phase IX / RF, Dioxane/Water/Hydrochloric acid (conc.), mobile phase V / RF, Acetone/Water/Hydrochloric acid (conc.), mobile phase V / RF, Methanol/Water/Hydrochloric acid (conc.), mobile phase V / RF, Dioxane/Water/Hydrochloric acid (conc.), mobile phase VI / RF, Acetone/Water/Hydrochloric acid (conc.), mobile phase VI / RF, Methanol/Water/Hydrochloric acid (conc.), mobile phase VI / RF, Acetone/Water/Hydrochloric acid (conc.), mobile phase VII / RF, Methanol/Water/Hydrochloric acid (conc.), mobile phase VII / RF, Acetone/Water/Hydrochloric acid (conc.), mobile phase VIII / RF, Methanol/Water/Hydrochloric acid (conc.), mobile phase VIII: RP-18 silica; for RF, Acetone/Water/Hydrochloric acid (conc.), mobile phase I: I = 80%AC/15%H2O/5%HCl; for RF, Dioxane/Water/Hydrochloric acid (conc.), mobile phase I: I = 90%Dioxane/5%H2O/5%HCl; for RF, Methanol/Water/Hydrochloric acid (conc.), mobile phase I: I = 90%MeOH/5%H2O/5%HCl; for RF, Acetone/Water/Hydrochloric acid (conc.), mobile phase II: II = 75%AC/20%H2O/5%HCl; for RF, Dioxane/Water/Hydrochloric acid (conc.), mobile phase II: II = 80%Dioxane/15%H2O/5%HCl; for RF, Methanol/Water/Hydrochloric acid (conc.), mobile phase II: II = 85%MeOH/10%H2O/5%HCl; for RF, Acetone/Water/Hydrochloric acid (conc.), mobile phase III: III = 70%AC/25%H2O/5%HCl; for RF, Dioxane/Water/Hydrochloric acid (conc.), mobile phase III: III = 70%Dioxane/25%H2O/5%HCl; for RF, Methanol/Water/Hydrochloric acid (conc.), mobile phase III: III = 80%MeOH/15%H2O/5%HCl; for RF, Dioxane/Water/Hydrochloric acid (conc.), mobile phase IV: IV = 60%Dioxane/35%H2O/5%HCl; for RF, Acetone/Water/Hydrochloric acid (conc.), mobile phase IV: IV = 65%AC/30%H2O/5%HCl; for RF, Methanol/Water/Hydrochloric acid (conc.), mobile phase IV: IV = 75%MeOH/20%H2O/5%HCl; for RF, Acetone/Water/Hydrochloric acid (conc.), mobile phase IX: IX = 40%AC/55%H2O/5%HCl; for RF, Methanol/Water/Hydrochloric acid (conc.), mobile phase IX: IX = 50%MeOH/45%H2O/5%HCl; for RF, Dioxane/Water/Hydrochloric acid (conc.), mobile phase V: V = 50%Dioxane/45%H2O/5%HCl; for RF, Acetone/Water/Hydrochloric acid (conc.), mobile phase V: V = 60%AC/35%H2O/5%HCl; for RF, Methanol/Water/Hydrochloric acid (conc.), mobile phase V: V = 70%MeOH/25%H2O/5%HCl; for RF, Dioxane/Water/Hydrochloric acid (conc.), mobile phase VI: VI = 40%Dioxane/55%H2O/5%HCl; for RF, Acetone/Water/Hydrochloric acid (conc.), mobile phase VI: VI = 55%AC/40%H2O/5%HCl; for RF, Methanol/Water/Hydrochloric acid (conc.), mobile phase VI: VI = 65%MeOH/30%H2O/5%HCl; for RF, Acetone/Water/Hydrochloric acid (conc.), mobile phase VII: VII = 50%AC/45%H2O/5%HCl; for RF, Methanol/Water/Hydrochloric acid (conc.), mobile phase VII: VII = 60%MeOH/35%H2O/5%HCl; for RF, Acetone/Water/Hydrochloric acid (conc.), mobile phase VIII: VIII = 45%AC/50%H2O/5%HCl; for RF, Methanol/Water/Hydrochloric acid (conc.), mobile phase VIII: VIII = 55%MeOH/40%H2O/5%HCl
# Experimental: Chromatographic determination of lipophilicity
# Merck, Darmstadt, Germany). The mobile phase contained organic modifier (methanol, acetone or dioxane), water and hydrochloric acid.
# Methanol was varied in the range […]
# with an increment of 10%. […]
# before chromatogram development. The solvent developing distance was 4.5 cm. Detection of […]
# All experiments were performed at ambient temperature (22±2 °C). Retention parameters were calculated as previously described. […]
# [5] = ± standard error, 25 °C, ATCh substrate, read-out: Ki AChE
# [6] = ± standard error, 25 °C, ATCh substrate, read-out: Ki BChE
# [7] = Acetone/Water/Hydrochloric acid (conc.)
# [8] = Dioxane/Water/Hydrochloric acid (conc.)
# [9] = Methanol/Water/Hydrochloric acid (conc.)
Structure (SMILES),IS [1],"Ki [1, 5]","Ki [2, 6]",FRAP ([3]; 10 µM compound),FRAP ([3]; 100 µM compound),"RM0 [4, 7]","b [4, 7]","RM0 [4, 8]","b [4, 8]","RM0 [4, 9]","b [4, 9]","RF, Acetone/Water/Hydrochloric acid (conc.), mobile phase I [4]","RF, Dioxane/Water/Hydrochloric acid (conc.), mobile phase I [4]","RF, Methanol/Water/Hydrochloric acid (conc.), mobile phase I [4]","RF, Acetone/Water/Hydrochloric acid (conc.), mobile phase II [4]","RF, Dioxane/Water/Hydrochloric acid (conc.), mobile phase II [4]","RF, Methanol/Water/Hydrochloric acid (conc.), mobile phase II [4]","RF, Acetone/Water/Hydrochloric acid (conc.), mobile phase III [4]","RF, Dioxane/Water/Hydrochloric acid (conc.), mobile phase III [4]","RF, Methanol/Water/Hydrochloric acid (conc.), mobile phase III [4]",further results
Clc1ccc2c(NCCN(CCC34CC5CC(CC(C5)C3)C4)CCC34CC5CC(CC(C5)C3)C4)ccnc2c1 [Compound 9],0.3,5.2 ± 0.2 µM,1.5 ± 0.2 µM,3.4 ± 0.0 µM,29 ± 6 µM,3.559,4.683,2.268,3.179,5.446,5.91,0.58,0.75,0.44,0.5,0.65,0.31,0.33,0.55,0.11,"Ki ([1]; log (Ki/µM AChE), read-out: Y Measured 1 log(ki)Ache (converted)): 5.2 µM; Ki ([2]; logarithm of Ki in µM, BChE, dependent variable of the QSAR model, read-out: Y Measured 2 log(ki)Bche, log (Ki/µM BChE) (converted)): 1.5 µM; RF, Dioxane/Water/Hydrochloric acid (conc.), mobile phase IV [4]: 0.42; RF, Acetone/Water/Hydrochloric acid (conc.), mobile phase IV [4]: 0.28; RF, Methanol/Water/Hydrochloric acid (conc.), mobile phase IV [4]: 0.1; RF, Acetone/Water/Hydrochloric acid (conc.), mobile phase IX [4]: 0; RF, Methanol/Water/Hydrochloric acid (conc.), mobile phase IX [4]: 0; RF, Dioxane/Water/Hydrochloric acid (conc.), mobile phase V [4]: 0.11; RF, Acetone/Water/Hydrochloric acid (conc.), mobile phase V [4]: 0.13; RF, Methanol/Water/Hydrochloric acid (conc.), mobile phase V [4]: 0.05; RF, Dioxane/Water/Hydrochloric acid (conc.), mobile phase VI [4]: 0; RF, Acetone/Water/Hydrochloric acid (conc.), mobile phase VI [4]: 0.09; RF, Methanol/Water/Hydrochloric acid (conc.), mobile phase VI [4]: 0.01; RF, Acetone/Water/Hydrochloric acid (conc.), mobile phase VII [4]: 0; RF, Methanol/Water/Hydrochloric acid (conc.), mobile phase VII [4]: 0; RF, Acetone/Water/Hydrochloric acid (conc.), mobile phase VIII [4]: 0; RF, Methanol/Water/Hydrochloric acid (conc.), mobile phase VIII [4]: 0"
Clc1ccc2c(NCCCCN(CCC34CC5CC(CC(C5)C3)C4)CCC34CC5CC(CC(C5)C3)C4)ccnc2c1 [Compound 10],0.4,2.4 ± 0.2 µM,1 ± 0.1 µM,13 ± 4 µM,90 ± 6 µM,3.647,4.824,1.984,2.852,5.456,5.91,0.59,0.75,0.44,0.52,0.65,0.31,0.33,0.59,0.1,"RF, Dioxane/Water/Hydrochloric acid (conc.), mobile phase IV [4]: 0.47; RF, Acetone/Water/Hydrochloric acid (conc.), mobile phase IV [4]: 0.28; RF, Methanol/Water/Hydrochloric acid (conc.), mobile phase IV [4]: 0.1; RF, Acetone/Water/Hydrochloric acid (conc.), mobile phase IX [4]: 0; RF, Methanol/Water/Hydrochloric acid (conc.), mobile phase IX [4]: 0; RF, Dioxane/Water/Hydrochloric acid (conc.), mobile phase V [4]: 0.14; RF, Acetone/Water/Hydrochloric acid (conc.), mobile phase V [4]: 0.13; RF, Methanol/Water/Hydrochloric acid (conc.), mobile phase V [4]: 0.05; RF, Dioxane/Water/Hydrochloric acid (conc.), mobile phase VI [4]: 0; RF, Acetone/Water/Hydrochloric acid (conc.), mobile phase VI [4]: 0.09; RF, Methanol/Water/Hydrochloric acid (conc.), mobile phase VI [4]: 0.01; RF, Acetone/Water/Hydrochloric acid (conc.), mobile phase VII [4]: 0; RF, Methanol/Water/Hydrochloric acid (conc.), mobile phase VII [4]: 0; RF, Acetone/Water/Hydrochloric acid (conc.), mobile phase VIII [4]: 0; RF, Methanol/Water/Hydrochloric acid (conc.), mobile phase VIII [4]: 0"
